Results published in ChEMBL document CHEMBL1135235, “Structure-activity relationships of oxime neurokinin antagonists: oxime modifications” (Bioorg Med Chem Lett, 2002).

Assays:
[1] = target: T1, Substance-K receptor (Homo sapiens, UniProt P21452); assay: Binding affinity against recombinant human tachykinin receptor 2 in CHO cells using [3H]NKA as a radioligand; format: cell-based
T1 sequence (P21452 whole entry): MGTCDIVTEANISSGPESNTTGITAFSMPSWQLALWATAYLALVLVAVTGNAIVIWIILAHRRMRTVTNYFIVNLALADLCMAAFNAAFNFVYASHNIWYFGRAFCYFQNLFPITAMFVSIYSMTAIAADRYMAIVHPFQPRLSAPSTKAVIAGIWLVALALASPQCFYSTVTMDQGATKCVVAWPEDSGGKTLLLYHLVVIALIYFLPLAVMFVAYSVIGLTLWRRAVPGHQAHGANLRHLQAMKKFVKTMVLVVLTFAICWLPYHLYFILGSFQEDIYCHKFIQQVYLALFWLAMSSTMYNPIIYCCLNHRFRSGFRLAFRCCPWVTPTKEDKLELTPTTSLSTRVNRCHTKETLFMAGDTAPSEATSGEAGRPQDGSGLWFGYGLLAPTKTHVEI

[2] = target: Substance-P receptor (Homo sapiens, UniProt P25103); assay: Binding affinity against recombinant human tachykinin receptor 1 in CHO cells using [3H]-Sar SP as a radioligand; format: cell-based
[3] = Area under curve was determined at a dose 30 mpk administered orally.; format: ADME, organism-based; details: rat, in vivo, po, 30 mg/kg
[4] = target: T2, Substance-K receptor (Cavia porcellus) (UniProt Q64077); assay: Inhibitory activity against Tachykinin receptor 2 evaluated as beta-ala-NKA (410) induced bronchospasm inhibition after a oral dose of 10 mpk in guinea pig; format: functional
T2 sequence (whole entry): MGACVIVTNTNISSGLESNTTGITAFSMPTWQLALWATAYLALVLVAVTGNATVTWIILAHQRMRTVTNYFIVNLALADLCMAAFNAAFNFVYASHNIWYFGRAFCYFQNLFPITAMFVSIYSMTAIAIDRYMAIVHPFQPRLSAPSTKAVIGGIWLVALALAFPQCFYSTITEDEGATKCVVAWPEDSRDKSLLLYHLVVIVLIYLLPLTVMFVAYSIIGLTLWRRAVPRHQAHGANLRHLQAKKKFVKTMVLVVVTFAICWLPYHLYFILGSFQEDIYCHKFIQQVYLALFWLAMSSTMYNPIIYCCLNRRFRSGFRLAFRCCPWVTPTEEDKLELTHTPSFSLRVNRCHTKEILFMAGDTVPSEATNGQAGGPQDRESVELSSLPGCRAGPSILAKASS

Sequence of Substance-P receptor (P25103 whole entry): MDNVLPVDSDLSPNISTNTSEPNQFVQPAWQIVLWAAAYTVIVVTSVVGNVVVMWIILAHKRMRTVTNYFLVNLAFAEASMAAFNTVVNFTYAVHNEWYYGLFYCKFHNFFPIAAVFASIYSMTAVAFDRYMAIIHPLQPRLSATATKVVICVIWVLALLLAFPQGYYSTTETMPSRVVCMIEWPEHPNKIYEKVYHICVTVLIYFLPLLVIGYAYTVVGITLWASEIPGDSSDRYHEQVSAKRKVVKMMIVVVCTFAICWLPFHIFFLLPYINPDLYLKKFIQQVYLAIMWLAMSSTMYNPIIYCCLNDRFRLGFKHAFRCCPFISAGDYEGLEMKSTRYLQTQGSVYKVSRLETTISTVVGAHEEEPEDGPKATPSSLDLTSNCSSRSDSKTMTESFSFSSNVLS

Ki [1]: 0.7 nM
Ki [2]: 0.7 nM
AUC [3]: 3 µM·h
inhibition [4]: 94%
SMILES: CN(C/C(=N\OCC(=N)NO)C(CCN1CCC(N2CCCCC2=O)CC1)c1ccc(Cl)c(Cl)c1)C(=O)c1cc(Cl)cc(Cl)c1 (centres undefined)
